Measurements published in a melting point compilation (Tetko et al.; mined from patent text by program, amines drawn as free bases though some values may be those of a salt).

melting point [°C]	Structure (SMILES)
95 to 100	O=C(O)C=CC(F)(F)F
162	CC(C)S(=O)(=O)n1cc(-c2ccc(Oc3ccccc3)cc2)c2c(N)ncnc21
82 to 84	Cc1cc(Oc2cccc(C(F)(F)F)c2)nn1C(=O)Nc1ccc(C(F)(F)F)cc1
166 to 168	CN(C)c1ncc(-c2cccc(Nc3ccc(-n4cccc4)cc3[N+](=O)[O-])c2)cn1
163 to 164	CC1CCC(=NNc2ccccc2)c2nccc(=O)n21 (centres undefined)
240 to 242	Cc1cc(C)c(-c2c(O)sc(-c3ccccc3)nc2=O)c(C)c1
133	Cc1cc(SCc2ccc(OCc3ccc(C(F)(F)F)cc3)cc2)ccc1OCC(=O)O
131 to 133	NC(=O)c1ccc(F)c(Br)c1
233 to 234	CC(C)n1c(-c2ccc(F)cc2)c(/C=C/C(=O)O)c2ccccc2c1=O
66 to 67	CCOC(=O)C(CC)(CC)CCCS(N)(=O)=O
150 to 151	FC(F)(F)c1ccc(OCCCc2cn(C(c3ccccc3)(c3ccccc3)c3ccccc3)cn2)cc1
85 to 86	CC(c1cccc(O)c1)N(C)C (centres undefined)
173 to 175	COc1ccccc1NC(=O)Nc1ccc(N2CCN(C(=O)Nc3ccc(OCCO)cc3Cl)CC2)c(Cl)c1
100 to 111	Cc1cc(SC#N)c(C(C)(C)C)cc1NC(=O)OC(C)(C)C
182	O=S1(=O)N(CCCN2CCN(c3ccc(O)cc3)CC2)c2cccc3c2N1CCC3
79 to 80	CCOC(=O)CC[C@H](NC(=O)c1cc(CCCc2coc3nc(N)nc(N)c23)cs1)C(=O)OCC
306 to 312	Cc1[nH]cc2c(=O)n(-c3ccc(Cl)cc3)nc-2c1-c1cccc(I)c1
162 to 163	Cc1oc(-c2ccccc2)nc1COc1ccc(COc2ccc(Br)cc2CC(=O)O)cc1
158 to 159	CCOC(=O)N(c1ccc(C#N)cc1)c1c(NC(C)C(C)(C)C)c(=O)c1=O (centres undefined)

melting point [°C]	Structure (SMILES)
84.5 to 86	N#CCc1c(C(F)(F)F)cccc1C(F)(F)F
118 to 119	COC(=O)c1cc(-c2ccc(OC)c(OC)c2)nn(CC=Cc2ccc(Cl)cc2)c1=O
233 to 238	COc1ccc(OCc2ccccn2)cc1/C=C/c1cc(/C=C/c2c[nH]c3ccccc23)n[nH]1
173 to 174	CC(=O)NCCc1cn(S(=O)(=O)c2ccc(C)cc2)c2ccc(O)cc12
178 to 180	Oc1c(Br)c(Br)c(F)c(Br)c1Br
128 to 130	CCc1nn(CC(=N)NO)c(CC)c1Oc1cc(Cl)cc(Cl)c1
205 to 208	O=C(O)CCSC(c1ccccc1)(c1ccccc1)c1ccccc1
176 to 177	O=C(O)c1cccc(=O)n1OCc1ccccc1
148 to 150	Cc1ccc(C)n1-c1cccc(C(=O)O)c1
153 to 157	Cc1cn(C2CC(C#N)C(COC(c3ccccc3)(c3ccccc3)c3ccccc3)O2)c(=O)[nH]c1=O (centres undefined)
98 to 100	CCCc1c(OCCCCc2nc3ccc(C(=O)O)cc3[nH]2)ccc(C(C)=O)c1O
302 to 303	O=C1NC(=O)C(c2ccccc2)(c2c[nH]c3ccccc23)N1 (centres undefined)
> 285	COc1cccc(Nc2nc(-c3ccccc3)c(C(=O)c3sc(Nc4cccc(OC)c4)nc3-c3ccccc3)s2)c1
109 to 111	O=c1[nH]c(=O)n(C2CC(O)C(CO)O2)cc1C(Cl)=CI (centres undefined)
121	NCc1cccc(N2C(=O)N(c3ccccc3Br)Cc3cnc(Nc4ccccc4)nc32)c1
265 to 267	c1ccc(-c2csc(Nc3cc4ccccc4cn3)n2)cc1
122 to 123	COC(=O)C(=NO)c1cccc(Oc2ccccc2)c1
176 to 178	CC(=NNC(=N)N)c1cccc(OCc2ccc3ccccc3c2)c1
150 to 153	COc1ccc(C)cc1NC(=O)Nc1ccc(C2=CCN(C(=O)Nc3ccc(OCCO)cc3C(F)(F)F)CC2)cc1

Structure (SMILES)	melting point [°C]
Cc1cc(O)cc2c1CCC2(C)C	80 to 81
